{"source": "patent USRE41065E1", "about": "“Alkynl and azido-substituted 4-anilinoquinazolines” (Pfizer, Inc., priority 1995, dated 2009)"}
{"system": "transplanted human mammary carcinoma which expresses epidermal growth factor receptor tyrosine kinase (EGFR)", "settings": "athymic nude mice; background statement; cited from earlier work"}
{"smiles": "O=CN/C=C/c1cc(O)ccc1O", "note": "[erbstatin]", "growth of transplanted human mammary carcinoma expressing EGFR": "selectively attenuates the growth"}
{"system": "not given", "settings": "not given"}
{"smiles": "C#Cc1cccc(Nc2ncnc3cc(OCCCC)c(OCCCC)cc23)c1.Cl", "melting point": "247 to 248 °C"}
{"smiles": "C#Cc1cccc(Nc2ncnc3cc(OCCn4ccnc4)c(OCCOC)cc23)c1.Cl.Cl", "melting point": "220 to 227 °C (dec.)"}
{"smiles": "C#Cc1cccc(Nc2ncnc3cc(OCCOC)c(OCCOC(C)=O)cc23)c1", "melting point": "84 to 87 °C"}
{"smiles": "C#Cc1cccc(Nc2ncnc3cc(OCCO)c(OCCO)cc23)c1.Cl", "melting point": "215 to 218 °C (dec.)"}
{"smiles": "C#Cc1cccc(Nc2ncnc3cc(OCCn4ccc(=O)cc4)c(OCCOC)cc23)c1.Cl", "melting point": "240 to 248 °C (dec.)"}
{"smiles": "C#Cc1cccc(Nc2ncnc3cc(OCCOC)c(OCCn4ccc(=O)cc4)cc23)c1.Cl", "melting point": "155 to 168 °C (dec.)"}
{"smiles": "C#Cc1cccc(Nc2ncnc3cc(OCCCl)c(OCCOC)cc23)c1.Cl", "melting point": "225 to 235 °C (dec.)"}
{"smiles": "C#Cc1cccc(Nc2ncnc3cc(OCCN4CCN(C)CC4)c(OCCOC)cc23)c1.Cl.Cl", "melting point": "130 to 142 °C (dec.)"}
{"smiles": "C#Cc1cccc(Nc2ncnc3cc(OCCSC(C)C(=O)O)c(OCCOC)cc23)c1.N", "note": "(stereo not shown)", "melting point": "95 to 103 °C (dec.)"}
{"smiles": "C#Cc1cccc(Nc2ncnc3cc(OCCOC)c(O)cc23)c1.Cl", "melting point": "135 to 150 °C (dec.)"}
{"smiles": "C#Cc1cccc(Nc2ncnc3cc(OCCOC(C)=O)c(OCCOC)cc23)c1", "melting point": "134 to 135 °C"}
{"smiles": "C#Cc1ccc(C)c(Nc2ncnc3cc(OCCOC)c(OCCOC)cc23)c1.Cl", "melting point": "170 to 185 °C (dec.)"}
{"smiles": "C#Cc1cccc(Nc2ncnc3cc(OCCOC(C)=O)c(OCCOC(C)=O)cc23)c1", "melting point": "137 to 138 °C"}
{"smiles": "C#Cc1cc(Nc2ncnc3cc(OCCOC)c(OCCOC)cc23)ccc1F.Cl", "melting point": "170 to 190 °C (dec.)"}
{"smiles": "C#Cc1cccc(Nc2ncnc3cc(OCCOC)c(OCCn4ccnc4)cc23)c1.Cl.Cl", "melting point": "85 to 100 °C (dec.)"}
{"smiles": "C#Cc1cccc(Nc2ncnc3ccc(C)cc23)c1.Cl", "melting point": "256 to 257 °C"}
{"smiles": "C#Cc1cccc(Nc2ncnc3cc(OCCCl)c(OCCCl)cc23)c1.Cl", "melting point": "230 to 240 °C (dec.)"}
{"smiles": "C#Cc1cccc(Nc2ncnc3cc(OCCOC)c(OCCCl)cc23)c1.Cl", "melting point": "215 to 225 °C (dec.)"}
{"smiles": "C#Cc1cccc(Nc2ncnc3cc(OCCOC)c(OCCSCC(=O)O)cc23)c1.N", "melting point": "98 to 113 °C (dec.)"}
{"smiles": "C#Cc1cccc(Nc2ncnc3cc(OCCOC)c(OCCN4CCOCC4)cc23)c1.Cl.Cl", "melting point": "115 to 130 °C (dec.)"}
{"system": "another carcinoma which does not express the EGF receptor", "settings": "athymic nude mice; background statement; cited from earlier work"}
{"smiles": "O=CN/C=C/c1cc(O)ccc1O", "note": "[erbstatin]", "growth of carcinoma which does not express the EGF receptor": "without effect on the growth"}
